Results taken from patent publication US6656921B1, “Use of zinc hyaluronate against peptic ulcer” (Richter Gedeon Vegyeszeti Gyar RT., priority 1997, dated 2003).
Marks after values point to notes of the source that are not given here.

Experiments:
Type in all cases: in vivo, rat
[1] = test system: acidified ethanol induced gastric lesion; experiment: Inhibition of acidified-ethanol induced gastric lesions; conditions: for Inhibition / Lesion length/stomach / Lesion length/stomach mm ± S.E.M.: 30 min before acidified ethanol; for ED50 (dose giving 50% decrease in ulcer index): p.o., 30 min pretreatment
Experimental: Female RG-Wistar rats weighing between 120-150 g were used. Before experiments animals were fasted for 24 hours but received water ad libitum.
Experiments were carried out according to the technique similar to that described by A. Robert [Gastroenterology 77, […] (1979)].
Acidified ethanol (mixture of 50 ml of abs. ethanol and 1 ml of concentrated HCI) was used as strong irritants. Dose of acidified ethanol was 0.5 ml/100 g body weight with intragastric administration. Test compounds were given orally 30 minutes before the acidified ethanol challenge. When the duration of action of test compound was studied test material was administered 60 or 120 minutes earlier to the irritating effect induced by acidified-ethanol effect. One hour after the acidified ethanol treatment rats were sacrificed by cervical dislocation. Stomachs were removed and opened along the greater curvature and mildly washed down. The longitudinal hemorrhagic lesions were assayed by length.
ED50 value was defined as the dose that gave a 50% decrease in ulcer index.

[2] = test system: indomethacin induced gastric lesion; experiment: Inhibition of indomethacin induced gastric lesion; conditions: for Protection of gastric mucosa against indomethacin (in words): rat, in vivo
Experimental: 2. Inhibition of Indomethacin Induced Gastric Lesion Female RG Wistar rats weighing between 120-150 g were used. Before the experiments animals were fasted for 24 hours but received water ad libitum. Test compounds were given orally, 30 minutes later the animals were treated subcutaneously with indomethacin at a dose of 40 mg/kg. Four hours after the irritating indomethacin administration the animals were killed by cervical dislocation. The stomachs were removed, opened along the greater curvature and the hemorrhagic lesions were counted on the glandular stomach.
ED50 value represents the dose which protects the stomach by 50 % from the damaging effect of indomethacin.

[3] = test system: acetic acid induced chronic gastric ulcer; experiment: Inhibition of acetic acid induced chronic gastric ulcer; conditions: for Ulcerated area mm^2 ± S.E.M.: 1.0 mg/kg p.o. once a day, day 5 to 14 after surgery; for Effect on healing of acetic acid induced chronic ulcer (in words): rat, in vivo
Experimental: Female, RG Wistar rats weighing between 120-150 g were used. Before the surgery animals were deprived of food for 24 hours but received water ad libitum. The chronic gastric ulcer was induced by the injection of 25 μl/animal of 20% (v/v) acetic acid into the gastric wall under light ether anaesthesia according to the method similar to that described by Takagi et al. (1969). The oral treatment with the test compounds was started five days after the surgery and continued in a once-a-day regimen up to the 14th day. The animals were killed on the 15th day and their stomachs were dissected. The severity of ulceration was evaluated by the measurement of the diameter of the ulcers and the area affected was calculated. The healing effect was expressed as differences in percentage between the control and test group values.

[4] = test system: gastrointestinal motility; experiment: Gastrointestinal motility in the charcoal propulsion test; conditions: 100 mg/kg p.o.; for Propulsion of charcoal suspension mm ± S.E.M.: 30 min before charcoal, 60 min after charcoal
Experimental: Experiments were performed on female, RG-Wistar rats weighing 120-140 g, which were fasted for 24 hours but received water ad libitum.
The experimental procedure was carried out according to the technique similar to that described of P. A. Janssen and A. J. Jageneau [J. Pharm. Pharmacel. 9, 381 (1957)].
Test compounds were given orally at a dose of 100 mg/kg. Control animals received physiological saline solution instead of test compounds. 30 minutes later, the 5% (w/v) charcoal suspension was administered orally at a volume of 0.5 ml/animal. 60 minutes after the charcoal treatment the animals were sacrificed by cervical dislocation. The intestine from pylorus to cecum was removed, its lengths measured along with the distance traversed by the charcoal meal.
Motility was expressed as the ratio of length of charcoal suspension to the length of the whole intestine.

[5] = test system: acidified ethanol induced gastric damage; experiment: Effect of L-NAME (endogenous NO) on protection against acidified-ethanol induced gastric damage
Experimental: To study the mechanism of action of the compound to be tested, the involvement of endogenous NO in the development of acidified-ethanol induced gastric damage was also studied by intraperitoneal administration of L-N^G-nitroarginine methyl ester (L-NAME). L-NAME at a dose of 25 mg/kg was injected 15 minutes before the test compound. In subsequent experiments the test compound (p.o.), L-NAME (25 mg/kg i.p.), L-arginine (400 mg/kg i.v.) were administered 30, 45 or 60 minutes before oral administration of acidified-ethanol.
The connection between the cytoprotective effect of zinc hyaluronate and endogenic NO was studied by using an inhibitor of the nitrogen(II) oxide biosynthesis namely, N^G-nitro-L-arginine methyl ester (L-NAME). Considering that zinc hyaluronate(II) and zinc hyaluronate(M) had shown the same activity in acidified ethanol test, the latter was the only one tested in this experiment.

[6] = test system: stress-induced gastric lesion; experiment: Inhibition of stress (cold-restraint) induced gastric lesions; conditions: for Lesion score/stomach ± S.E.M.: 30 min before cold-restraint stress, score 0-3; for Inhibition: 30 min before stress; for Protection against cold-restraint induced gastric damage (in words): rat, in vivo
Experimental: Female RG Wistar rats weighing between 120-150 g were used. Before the experiments animals were fasted for 24 hours but received water ad libitum. Experiments were carried out according to the technique similar to that described by Senay et al., (1967). [Proc. Soc. Exp. Biol. Med.124,1221, (1967)].
Test compounds were given orally. 30 minutes later the animals were immobilized in plastic restraint boxes then placed into a refrigerator at 4° C.-8° C. temperature. Four hours later the animals were removed from both the refrigerator and the restraint boxes and one hour later they were sacrificed by cervical dislocation. The stomachs were removed, opened along the greater curvature and hemorrhagic lesions were scored by a zero to 3 scale: stomachs free from any damage were given a score of 0, stomachs with only a few hemorrhagic lesion were given a score of 1, stomachs with more lesion numbers than 10 were given a score of 2, and stomachs with a lot of lesions were characterized with a score of 3.
The ED50 were defined as the dose needed to decrease the score of gastric lesions by 50%.

[7] = test system: platelet activating factor (PAF) induced gastric lesion; experiment: Inhibition of gastric damage induced by platelet activating factor (PAF)
Experimental: Male, RG-Wistar rats weighing between 200-250 g were used. Before the experiments animals were fasted for 24 hours but received water ad libitum. Experiments were carried out according to the technique similar to that described by Wallace and Whittle (1986). [Br.J.Pharmac., 89,415, (1986)]. Animals were anaesthetized by intraperitoneal administration of urethane at a dose of 1 g/kg in a volume of 10 ml/kg. Femoral vein was then prepared and cannulated for administration of ulcerogenic PAF. After the surgery PAF was infused intravenously at a rate of 0.1 ml/min for ten minutes at a dose of 200 ng/kg/min. Test compounds were given 30 minutes before the PAF challenge. One hour after the infusion of PAF animals were sacrificed by cervical dislocation; their stomachs were removed and opened along the greater curvature. The hemorrhagic erosions were evaluated by a zero to three scoring system.

[8] = 1.0 mg/kg p.o., 30 min before indomethacin
[9] = 1.0 mg/kg p.o., 30 min before indomethacin 40 mg/kg s.c.
[10] = 10.0 mg/kg p.o., 30 min before indomethacin
[11] = 10.0 mg/kg p.o., 30 min before indomethacin 40 mg/kg s.c.
[12] = 100 mg/kg p.o., 30 min before indomethacin
[13] = 100 mg/kg p.o., 30 min before indomethacin 40 mg/kg s.c.
[14] = L-NAME + zinc chloride, 25 + 25 mg/kg
[15] = Vehicle + zinc chloride, 0 + 25 mg/kg
[16] = 25 mg/kg p.o., 30 min before indomethacin
[17] = listed as Zink-hyaluronate (III)

Compound	Inhibition ([1]; 10 mg/kg p.o.) [%]	Inhibition ([1]; 50 mg/kg p.o.) [%]	Inhibition ([1]; 100 mg/kg p.o.) [%]	ED50 (dose giving 50% decrease in ulcer index) [1] [mg/kg]	Inhibition [2, 8] [%]	Lesion number/stomach ± S.E.M. [2, 9]	Inhibition [2, 10] [%]	Lesion number/stomach ± S.E.M. [2, 11]	Inhibition [2, 12] [%]	Lesion number/stomach ± S.E.M. [2, 13]	Ulcerated area mm^2 ± S.E.M. [3] [mm^2]	Effect on healing of acetic acid induced chronic ulcer (in words) [3]	Protection of gastric mucosa against indomethacin (in words) [2]	Protection against cold-restraint induced gastric damage (in words) [6]	Lesion length/stomach mm ± S.E.M. ([1]; 50 mg/kg p.o.) [mm]	Lesion length/stomach mm ± S.E.M. ([1]; 100 mg/kg p.o.) [mm]	other results
zinc hyaluronate [Zinc hyaluronate (I)]	35.0	66.7	93.4	15.9	43.4	4.7 ± 2.1	55.4	3.7 ± 1.9	90.4	0.8 ± 0.4	10.0 ± 2.3	Neither zinc hyaluronate(I), nor zinc hyaluronate(III) had any effect	–	–	–	–	Inhibition ([1]; 1 mg/kg p.o.): 0%; Lesion length/stomach ([1]; 1 mg/kg p.o.): 95.3 ± 14.8; Lesion length/stomach ([1]; 10 mg/kg p.o.): 53.6 ± 7.3; Lesion length/stomach ([1]; 50 mg/kg p.o.): 27.4 ± 7.6; Lesion length/stomach ([1]; 100 mg/kg p.o.): 5.4 ± 2.0; Effect on the intestinal motility (in words) [4]: absence of change in activity; Propulsion of charcoal suspension mm ± S.E.M. ([4]; listed as Zink-hyaluronate (I)): 718 ± 5.6 mm; Ratio of charcoal suspension to the whole intestinal part ([4]; listed as Zink-hyaluronate (I)): 0.79 ± 0.07
[Cl-].[Cl-].[Zn+2] [Zinc chloride, zinc chloride, reference compound]	–	–	–	–	–	–	–	–	–	–	–	–	do not provide any effect	only slight protective effects	–	–	Inhibition ([1]; 3.2 mg/kg p.o.): 43.7%; Lesion length/stomach mm ± S.E.M. ([1]; 3.2 mg/kg p.o.): 29.0 ± 4.0 mm; Inhibition ([1]; 6.4 mg/kg p.o.): 52.0%; Lesion length/stomach mm ± S.E.M. ([1]; 6.4 mg/kg p.o.): 24.7 ± 7.7 mm; Inhibition ([1]; 12.8 mg/kg p.o.): 87.0%; Lesion length/stomach mm ± S.E.M. ([1]; 12.8 mg/kg p.o.): 6.7 ± 1.6 mm; Effect of L-NAME pretreatment on the gastroprotective activity (in words) ([5]; L-NAME 25 mg/kg): not influenced; Inhibition (compared with the vehicle + vehicle group) [5, 14]: 73.2%; Lesion length/stomach mm ± S.E.M. [5, 14]: 19.9 ± 5.5 mm; Inhibition (compared with the vehicle + vehicle group) [5, 15]: 89.2%; Lesion length/stomach mm ± S.E.M. [5, 15]: 8.0 ± 2.6 mm; Inhibition [2, 16]: 0%; Lesion number/stomach ± S.E.M. [2, 16]: 15.1 ± 3.7; Lesion score/stomach ± S.E.M. ([6]; 25 mg/kg p.o.): 0.6 ± 0.2; Inhibition ([6]; 25 mg/kg p.o.): 40.0%
zinc hyaluronate [Zinc hyaluronate (III)]	0	78.5	85.7	33.2	7.6	17.0 ± 4.5	57.6	7.9 ± 2.5	83.7	3.0 ± 1.4	6.8 ± 0.8	Neither zinc hyaluronate(I), nor zinc hyaluronate(III) had any effect	–	–	14.9 ± 4.5	9.9 ± 3.5	Lesion length/stomach mm ± S.E.M. ([1]; 10 mg/kg p.o.): 98.4 ± 12.7 mm; Inhibition ([1]; 25 mg/kg p.o.): 37.0%; Lesion length/stomach mm ± S.E.M. ([1]; 25 mg/kg p.o.): 43.7 ± 7.7 mm; Propulsion of charcoal suspension mm ± S.E.M. [4, 17]: 68 ± 2.5 mm; Ratio of charcoal suspension to the whole intestinal part [4, 17]: 0.89 ± 0.03
sodium hyaluronate [reference compound]	–	15.6	35.9	–	–	–	–	–	36.2	14.6 ± 3.3	–	–	do not provide any effect	only slight protective effects	65.7 ± 9.8	49.9 ± 6.0	Inhibition ([1]; 100 mg/kg p.o., listed as sodium hyaluronate): 36%; Lesion score/stomach ± S.E.M. ([6]; 100 mg/kg p.o.): 0.9 ± 0.2; Inhibition ([6]; 100 mg/kg p.o.): 40.0%; Inhibition ([7]; 100 mg/kg p.o., 30 min before PAF): 0%; Lesion score/stomach ± S.E.M. ([7]; 100 mg/kg p.o., 30 min before PAF infusion, score 0-3): 2.6 ± 0.2^a; Protection against ulcerogenic effect of PAF (in words) ([7]; rat, in vivo): did not show such effect
